Reference: patent publication US11447517B2, “Galactoside inhibitor of galectins” (GALECTO BIOTECH AB, priority 2018, dated 2022)

biological target: galectin-3 (Homo sapiens (Human), UniProt P17931); experiment: Fluorescence anisotropy assay, inhibition of galectin / fluorescein tagged saccharide probe interaction; format: binding
Experimental: Evaluation of Kd Values The affinity of Example 1-71 for galectins were determined by a fluorescence anisotropy assay where the compound was used as an inhibitor of the interaction between galectin and a fluorescein tagged saccharide probe as described Sörme, P., Kahl-Knutsson, B., Huflejt, M., Nilsson, U. J., and Leffler H. (2004) Fluorescence polarization as an analytical tool to evaluate galectin-ligand interactions. Anal. Biochem. 334: 36-47, (Sörme et al., 2004) and Monovalent interactions of Galectin-1 By Salomonsson, Emma; Larumbe, Amaia; Tejler, Johan; Tullberg, Erik; Rydberg, Hanna; Sundin, Anders; Khabut, Areej; Frejd, Torbjorn; Lobsanov, Yuri D.; Rini, James M.; et al, From Biochemistry (2010), 49(44), 9518-9532, (Salomonsson et al., 2010). […] 100 nM albumin was included as a carrier to prevent protein loss at such low concentration of galectin.

Chain of galectin-3 (P17931 whole entry): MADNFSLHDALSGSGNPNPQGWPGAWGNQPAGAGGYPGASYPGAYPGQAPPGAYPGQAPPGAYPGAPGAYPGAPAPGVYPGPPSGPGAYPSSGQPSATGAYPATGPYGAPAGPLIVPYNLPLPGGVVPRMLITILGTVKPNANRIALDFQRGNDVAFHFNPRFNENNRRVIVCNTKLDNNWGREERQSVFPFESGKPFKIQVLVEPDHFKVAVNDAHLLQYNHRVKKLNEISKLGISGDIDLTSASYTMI

Kd [nM]	SMILES
8	COC1[C@@H](Sc2cc(Cl)ccc2C(=O)N(C)C)OC(CO)[C@H](O)[C@@H]1n1cc(-c2cc(F)c(F)c(F)c2)nn1 (stereo partly drawn) [Example 3, 4-Chloro-N,N-dimethyl-benzamide-2-yl 3-deoxy-3-[4-(3,4,5-trifluorophenyl)-1H-1,2,3-triazol-1-yl]-2-O-methyl-1-thio-α-D-galactopyranoside]
14	COC1[C@@H](Sc2cc(Cl)ccc2C(=O)N(C)C)OC(CO)[C@H](O)[C@@H]1n1cc(-c2cc(F)c(Cl)c(F)c2)nn1 (stereo partly drawn) [Example 4, 4-Chloro-N,N-dimethyl-benzamide-2-yl 3-[4-(4-chloro-3,5-difluorophenyl)-1H-1,2,3-triazol-1-yl]-3-deoxy-2-O-methyl-1-thio-α-D-galactopyranoside]
82	OC[C@H]1O[C@H](Sc2cncc(Br)c2)[C@H](OCC(O)C(F)(F)F)[C@@H](n2cc(-c3cc(F)c(F)c(F)c3)nn2)[C@H]1O (stereo partly drawn) [Example 5, 5-Bromopyridin-3-yl 3-deoxy-3-[4-(3,4,5-trifluorophenyl)-1H-1,2,3-triazol-1-yl]-2-O-(1,1,1-trifluoro-2-hydroxyprop-3-yl)-1-thio-α-D-galactopyranoside]
120	CO[C@@H]1[C@@H](n2cc(-c3cc(F)c(Cl)c(F)c3)nn2)[C@@H](O)[C@@H](CO)O[C@@H]1Sc1cc(Cl)ccc1C(=O)N1CCCCC1 [Example 6, 2-(N-piperidinyl-carbonyl)-5-chlorophenyl 3-[4-(4-chloro-3,5-difluorophenyl)-1H-1,2,3-triazol-1-yl]-3-deoxy-2-O-methyl-1-thio-α-D-galactopyranoside]
33	COC1[C@@H](Sc2cc(Cl)cnc2N2CC3(COC3)C2)OC(CO)[C@H](O)[C@@H]1n1cc(-c2cc(F)c(F)c(F)c2)nn1 (stereo partly drawn) [Example 10, 5-Chloro-2-{N-(2-oxa)-6-azaspiro[3.3]heptanyl}-pyridin-3-yl 3-deoxy-3-[4-(3,4,5-trifluorophenyl)-1H-1,2,3-triazol-1-yl]-2-O-methyl-1-thio-α-D-galactopyranoside]
49	COC1[C@@H](Sc2cc(Cl)cnc2N2CC3(COC3)C2)OC(CO)[C@H](O)[C@@H]1n1cc(-c2cc(F)c(Cl)c(F)c2)nn1 (stereo partly drawn) [Example 11, 5-Chloro-2-{N-(2-oxa)-6-azaspiro[3.3]heptanyl}-pyridin-3-yl 3-[4-(4-chloro-3,5-difluorophenyl)-1H-1,2,3-triazol-1-yl]-3-deoxy-2-O-methyl-1-thio-α-D-galactopyranoside]
12	CO[C@@H]1[C@@H](n2cc(-c3cc(F)c(C)c(F)c3)nn2)[C@@H](O)[C@@H](CO)O[C@@H]1Sc1cc(Cl)cnc1C#N [Example 12, 5-Chloro-2-cyanopyridin-3-yl 3-deoxy-3-[4-(3,5-difluoro-4-methylphenyl)-1H-1,2,3-triazol-1-yl]-2-O-methyl-1-thio-α-D-galactopyranoside]
50	CO[C@@H]1[C@@H](n2cc(-c3cc(F)c(C)c(F)c3)nn2)[C@@H](O)[C@@H](CO)O[C@@H]1Sc1cc(Cl)ccc1C#N [Example 14, 5-Chloro-2-cyanophenyl 3-deoxy-3-[4-(3,5-difluoro-4-methylphenyl)-1H-1,2,3-triazol-1-yl]-2-O-methyl-1-thio-α-D-galactopyranoside]
59	CCO[C@@H]1[C@@H](n2cc(-c3cc(F)c(F)c(F)c3)nn2)[C@@H](O)[C@@H](CO)O[C@@H]1Sc1cc(Cl)cnc1C#N [Example 16, 5-Chloro-2-cyanopyridin-3-yl 3-deoxy-2-O-ethyl-3-[4-(3,4,5-trifluorophenyl)-1H-1,2,3-triazol-1-yl]-1-thio-α-D-galactopyranoside]
74	CCO[C@@H]1[C@@H](n2cc(-c3cc(F)c(F)c(F)c3)nn2)[C@@H](O)[C@@H](CO)O[C@@H]1Sc1cncc(Br)c1 [Example 17, 5-Bromopyridin-3-yl 3-deoxy-3-[4-(3,4,5-trifluorophenyl)-1H-1,2,3-triazol-1-yl]-2-O-ethyl-1-thio-α-D-galactopyranoside]
150	CC(C)O[C@@H]1[C@@H](n2cc(-c3cc(F)c(F)c(F)c3)nn2)[C@@H](O)[C@@H](CO)O[C@@H]1Sc1cncc(Br)c1 [Example 18, 5-Bromopyridin-3-yl 3-deoxy-3-[4-(3,4,5-trifluorophenyl)-1H-1,2,3-triazol-1-yl]-2-O-isopropyl-1-thio-α-D-galactopyranoside]
20	OC[C@H]1O[C@H](Sc2cncc(Br)c2)[C@H](OCCF)[C@@H](n2cc(-c3cc(F)c(F)c(F)c3)nn2)[C@H]1O [Example 19, 5-Bromopyridin-3-yl 3-deoxy-3-[4-(3,4,5-trifluorophenyl)-1H-1,2,3-triazol-1-yl]-2-O-(2-fluoroethyl)-1-thio-α-D-galactopyranoside]
71	CNCCO[C@@H]1[C@@H](n2cc(-c3cc(F)c(F)c(F)c3)nn2)[C@@H](O)[C@@H](CO)O[C@@H]1Sc1cncc(Br)c1 [Example 20, 5-Bromopyridin-3-yl 3-deoxy-3-[4-(3,4,5-trifluorophenyl)-1H-1,2,3-triazol-1-yl]-2-O-[2-(methylamino)ethyl]-1-thio-α-D-galactopyranoside]
58	OCCO[C@@H]1[C@@H](n2cc(-c3cc(F)c(Cl)c(F)c3)nn2)[C@@H](O)[C@@H](CO)O[C@@H]1Sc1ccc(Cl)c(Cl)c1 [Example 21, 3,4-Dichlorophenyl 3-[4-(4-chloro-3,5-difluorophenyl)-1H-1,2,3-triazol-1-yl]-3-deoxy-2-O-(2-hydroxyethyl)-1-thio-α-D-galactopyranoside]
60	COC1[C@@H](Sc2cc(Cl)c(C#N)nc2N2CC3(COC3)C2)OC(CO)[C@H](O)[C@@H]1n1cc(-c2cc(F)c(Cl)c(F)c2)nn1 (stereo partly drawn) [Example 22, 5-Chloro-6-cyano-2-{N-(2-oxa)-6-azaspiro[3.3]heptanyl}-pyridin-3-yl 3-[4-(4-chloro-3,5-difluorophenyl)-1H-1,2,3-triazol-1-yl]-3-deoxy-2-O-methyl-1-thio-α-D-galactopyranoside]
37	COC1[C@@H](Sc2cc(Cl)c(C#N)nc2N2CC3(COC3)C2)OC(CO)[C@H](O)[C@@H]1n1cc(-c2cc(F)c(F)c(F)c2)nn1 (stereo partly drawn) [Example 23, 5-Chloro-6-cyano-2-{N-(2-oxa)-6-azaspiro[3.3]heptanyl}-pyridin-3-yl 3-deoxy-3-[4-(3,4,5-trifluorophenyl)-1H-1,2,3-triazol-1-yl]-2-O-methyl-1-thio-α-D-galactopyranoside]
28	CO[C@@H]1[C@@H](n2cc(-c3cc(F)c(F)c(F)c3)nn2)[C@@H](O)[C@@H](CO)O[C@@H]1Sc1cc(Cl)cnc1-c1cncnc1 [Example 24, 5-Chloro-2-(pyrimidin-5-yl)pyridin-3-yl 3-deoxy-3-[4-(3,4,5-trifluorophenyl)-1H-1,2,3-triazol-1-yl]-2-O-methyl-1-thio-α-D-galactopyranoside]
24	CO[C@@H]1[C@@H](n2cc(-c3cc(F)c(F)c(F)c3)nn2)[C@@H](O)[C@@H](CO)O[C@@H]1Sc1cc(Cl)cnc1-c1ccccn1 [Example 25, 5-Chloro-2-(pyridin-2-yl)pyridin-3-yl 3-deoxy-3-[4-(3,4,5-trifluorophenyl)-1H-1,2,3-triazol-1-yl]-2-O-methyl-1-thio-α-D-galactopyranoside]
55	CO[C@@H]1[C@@H](n2cc(-c3cc(F)c(F)c(F)c3)nn2)[C@@H](O)[C@@H](CO)O[C@@H]1Sc1cc(Cl)cnc1-c1cccnc1 [Example 26, 5-Chloro-2-(pyridin-3-yl)pyridin-3-yl 3-deoxy-3-[4-(3,4,5-trifluorophenyl)-1H-1,2,3-triazol-1-yl]-2-O-methyl-1-thio-α-D-galactopyranoside]
56	CO[C@@H]1[C@@H](n2cc(-c3cc(F)c(F)c(F)c3)nn2)[C@@H](O)[C@@H](CO)O[C@@H]1Sc1cc(Cl)cnc1-c1ccncc1 [Example 27, 5-Chloro-2-(pyridin-4-yl)pyridin-3-yl 3-deoxy-3-[4-(3,4,5-trifluorophenyl)-1H-1,2,3-triazol-1-yl]-2-O-methyl-1-thio-α-D-galactopyranoside]
36	CO[C@@H]1[C@@H](n2cc(-c3cc(F)c(F)c(F)c3)nn2)[C@@H](O)[C@@H](CO)O[C@@H]1Sc1cc(Cl)cnc1C1=CCNCC1 [Example 28, 5-Chloro-2-(1,2,3,6-tetrahydropyridin-4-yl)pyridin-3-yl 3-deoxy-3-[4-(3,4,5-trifluorophenyl)-1H-1,2,3-triazol-1-yl]-2-O-methyl-1-thio-α-D-galactopyranoside]
68	CO[C@@H]1[C@@H](n2cc(-c3cc(F)c(F)c(F)c3)nn2)[C@@H](O)[C@@H](CO)O[C@@H]1Sc1cc(Cl)cnc1C1=CCNC1 [Example 29, 5-Chloro-2-(3-pyrrolin-3-yl)pyridin-3-yl 3-deoxy-3-[4-(3,4,5-trifluorophenyl)-1H-1,2,3-triazol-1-yl]-2-O-methyl-1-thio-α-D-galactopyranoside]
56	CO[C@@H]1[C@@H](n2cc(-c3cc(F)c(F)c(F)c3)nn2)[C@@H](O)[C@@H](CO)O[C@@H]1Sc1cc(Cl)cnc1-c1ncco1 [Example 30, 5-Chloro-2-(oxazol-2-yl)pyridin-3-yl 3-deoxy-3-[4-(3,4,5-trifluorophenyl)-1H-1,2,3-triazol-1-yl]-2-O-methyl-1-thio-α-D-galactopyranoside]
300	CO[C@@H]1[C@@H](n2cc(-c3cc(F)c(F)c(F)c3)nn2)[C@@H](O)[C@@H](CO)O[C@@H]1Sc1cc(Cl)cnc1-c1nccs1 [Example 31, 5-Chloro-2-(thiazol-2-yl)pyridin-3-yl 3-deoxy-3-[4-(3,4,5-trifluorophenyl)-1H-1,2,3-triazol-1-yl]-2-O-methyl-1-thio-α-D-galactopyranoside]
